Data from publication PMC8480901 (PLoS ONE, 2021).
Several values for one entry are separate records, joined by “and”; a condition that tells them apart may be missing. Identical values can stand only once.

Test system: J774.2 mouse macrophages
Assay: LPS-induced cytokine and chemokine levels in J774.2 mouse macrophage cell supernatant (ELISA)
Assay type: cell-based
Settings: LPS; for TNF-α / CCl2, % reduction / CCl2, Mean / GM-CSF % reduction / GM-CSF Mean / IL-1β % reduction / IL-1β Mean / IL-6 % reduction / IL-6 Mean / TNF-α % reduction / TNF-α Mean / CCl2 / CXCL1 / GM-CSF / IL-1β / IL-6: J774.2 supernatant; for TNF-α / CCl2 / CXCL1 / GM-CSF / IL-1β / IL-6 / CXCL2 / MMP9: individual replicate; for CXCL2 / MMP9: J774.2 cells

In the case of `C=C[C@]1(C)C[C@@H](OC(=O)CS[C@@H]2CC[C@@H](N)C[C@H]2O)[C@]2(C)[C@H](C)CC[C@]3(CCC(=O)[C@H]32)[C@@H](C)[C@@H]1O` [Lefamulin], the TNF-α (0.3 µM) was 1489.0 pg/mL and 1477.5 pg/mL, the CCl2, % reduction (1 µM) was -9% and the “CCl2, Mean” value (1 µM) was 39289 pg/mL. For the same compound, the GM-CSF % reduction (1 µM) was 60%, the “GM-CSF Mean” value (1 µM) was 564 pg/mL and the IL-1β % reduction (1 µM) was -12%. For the same compound, the “IL-1β Mean” value (1 µM) was 213 pg/mL, the IL-6 % reduction (1 µM) was 0.856% and the “IL-6 Mean” value (1 µM) was 76721 pg/mL. For the same compound, the TNF-α % reduction (1 µM) was -11%, the “TNF-α Mean” value (1 µM) was 1515 pg/mL and the CCl2 (1 µM) was 38237.3 pg/mL and 40341.1 pg/mL. For the same compound, the CXCL1 (1 µM) was 25.5 pg/mL and 26.1 pg/mL, the GM-CSF (1 µM) was 597.3 pg/mL and 530.6 pg/mL and the IL-1β (1 µM) was 223.29 pg/mL and 203.668 pg/mL. The IL-6 (1 µM) was 75165 pg/mL and 78277 pg/mL, the TNF-α (1 µM) was 1503.6 pg/mL and 1525.6 pg/mL and the CCl2, % reduction (3 µM) was -16%. The “CCl2, Mean” value (3 µM) was 41389 pg/mL, the GM-CSF % reduction (3 µM) was 51% and the “GM-CSF Mean” value (3 µM) was 681 pg/mL. For the same compound, the IL-1β % reduction (3 µM) was 12%, the “IL-1β Mean” value (3 µM) was 168 pg/mL and the IL-6 % reduction (3 µM) was 0.505%. For the same compound, the “IL-6 Mean” value (3 µM) was 76992 pg/mL, the TNF-α % reduction (3 µM) was -11% and the “TNF-α Mean” value (3 µM) was 1517 pg/mL. For the same compound, the CCl2 (3 µM) was 47549.1 pg/mL and 35229.8 pg/mL, the CXCL1 (3 µM) was 27.5 pg/mL and 27.6 pg/mL and the GM-CSF (3 µM) was 645.8 pg/mL and 715.5 pg/mL. For the same compound, the IL-1β (3 µM) was 151.548 pg/mL and 184.21 pg/mL, the IL-6 (3 µM) was 76816 pg/mL and 77168 pg/mL and the TNF-α (3 µM) was 1470.9 pg/mL and 1563.2 pg/mL. For the same compound, the CCl2, % reduction (10 µM) was -20%, the “CCl2, Mean” value (10 µM) was 42850 pg/mL and the GM-CSF % reduction (10 µM) was 25%. For the same compound, the “GM-CSF Mean” value (10 µM) was 1034 pg/mL, the IL-1β % reduction (10 µM) was 16% and the “IL-1β Mean” value (10 µM) was 160 pg/mL. For the same compound, the IL-6 % reduction (10 µM) was 11%, the “IL-6 Mean” value (10 µM) was 69181 pg/mL and the TNF-α % reduction (10 µM) was -18%. The “TNF-α Mean” value (10 µM) was 1616 pg/mL, the CCl2 (10 µM) was 49014.8 pg/mL and 36684.7 pg/mL and the CXCL1 (10 µM) was 35.9 pg/mL and 33.8 pg/mL. For the same compound, the GM-CSF (10 µM) was 1124.4 pg/mL and 943.6 pg/mL, the IL-1β (10 µM) was 178.332 pg/mL and 142.562 pg/mL and the IL-6 (10 µM) was 73782 pg/mL and 64579 pg/mL. For the same compound, the TNF-α (10 µM) was 1578.1 pg/mL and 1653.1 pg/mL, the CCl2, % reduction (30 µM) was -35% and the “CCl2, Mean” value (30 µM) was 47970 pg/mL. For the same compound, the GM-CSF % reduction (30 µM) was -22%, the “GM-CSF Mean” value (30 µM) was 1662 pg/mL and the IL-1β % reduction (30 µM) was 6%. The “IL-1β Mean” value (30 µM) was 179 pg/mL, the IL-6 % reduction (30 µM) was 25% and the “IL-6 Mean” value (30 µM) was 57940 pg/mL. The TNF-α % reduction (30 µM) was -31%, the “TNF-α Mean” value (30 µM) was 1789 pg/mL and the CCl2 (30 µM) was 51706.3 pg/mL and 44234.6 pg/mL. For the same compound, the CXCL1 (30 µM) was 87.9 pg/mL and 85.2 pg/mL, the GM-CSF (30 µM) was 1753.9 pg/mL and 1570.0 pg/mL and the IL-1β (30 µM) was 181.679 pg/mL and 176.699 pg/mL. For the same compound, the IL-6 (30 µM) was 56206 pg/mL and 59673 pg/mL, the TNF-α (30 µM) was 1766.5 pg/mL and 1811.5 pg/mL and the CCl2, % reduction (100 µM) was 26%. The “CCl2, Mean” value (100 µM) was 27179 pg/mL, the GM-CSF % reduction (100 µM) was -29% and the “GM-CSF Mean” value (100 µM) was 1755 pg/mL. The IL-1β % reduction (100 µM) was -71%, the “IL-1β Mean” value (100 µM) was 325 pg/mL and the IL-6 % reduction (100 µM) was 46%. The “IL-6 Mean” value (100 µM) was 42097 pg/mL, the TNF-α % reduction (100 µM) was -249% and the “TNF-α Mean” value (100 µM) was 4717 pg/mL. For the same compound, the CCl2 (100 µM) was 26262.5 pg/mL and 28095.5 pg/mL, the CXCL1 (100 µM) was 258.9 pg/mL and 215.6 pg/mL and the GM-CSF (100 µM) was 1833.3 pg/mL and 1676.9 pg/mL. The IL-1β (100 µM) was 330.455 pg/mL and 319.964 pg/mL, the IL-6 (100 µM) was 40652 pg/mL and 43542 pg/mL and the TNF-α (100 µM) was 4063.6 pg/mL and 5370.1 pg/mL. For the same compound, the “CXCL2” value (compound 0.03 µM) was 31852.1 pg/mL and 31453.1 pg/mL, the “MMP9” value (compound 0.03 µM) was 895.68 pg/mL and 982.757 pg/mL and the “CXCL2” value (compound 0.1 µM) was 30865.4 pg/mL and 29898.5 pg/mL. The “MMP9” value (compound 0.1 µM) was 770.463 pg/mL and 867.766 pg/mL, the “CXCL2” value (compound 0.3 µM) was 32714.1 pg/mL and 32124.3 pg/mL and the “MMP9” value (compound 0.3 µM) was 798.08 pg/mL and 882.55 pg/mL. The “CXCL2” value (compound 1 µM) was 35082.5 pg/mL and 36713.0 pg/mL, the “MMP9” value (compound 1 µM) was 879.359 pg/mL and 1004.8 pg/mL and the “CXCL2” value (compound 3 µM) was 37039.4 pg/mL and 32794.8 pg/mL. The “MMP9” value (compound 3 µM) was 913.107 pg/mL and 886.534 pg/mL, the “CXCL2” value (compound 10 µM) was 36052.8 pg/mL and 33589.2 pg/mL and the “MMP9” value (compound 10 µM) was 894.885 pg/mL and 781.214 pg/mL. For the same compound, the “CXCL2” value (compound 30 µM) was 37378.3 pg/mL and 38345.7 pg/mL, the “MMP9” value (compound 30 µM) was 446.696 pg/mL and 398.398 pg/mL and the “CXCL2” value (compound 100 µM) was 37906.2 pg/mL and 37582.2 pg/mL. For the same compound, the “MMP9” value (compound 100 µM) was 104.703 pg/mL and 78.135 pg/mL.
